Our source for the IC50 values is patent publication US4960815A, “Isotopically-labeled polycyclic amine derivatives” (Warner-Lambert Company, priority 1990, dated 1990).

The assay deals with PCP receptors. Kind of assay: Tritiated TCP binding, designated RBS1. The method, then:
Tritiated TCP binding, designated RBS1, was carried out essentially as described in J Pharmacol Exp Ther, 238, 739-748 (1986).

The IC50 is the midpoint of a concentration-inhibition curve. A high value points to lower potency. On to `c1csc(C2(N3CCCCC3)CCCCC2)c1` [TCP, 1-[1-(2-thienyl)cyclohexyl]piperidine], for which the IC50 worked out at 9 nM.
